Literature values, collected in US12409168B2, “Formulations of aminopenicillin and methods for solubilizing aminopenicillin” (VETERINARY PHARMACY CORPORATION, priority 2023, dated 2025).

CC1(C)S[C@@H]2[C@H](NC(=O)[C@H](N)c3ccc(O)cc3)C(=O)N2[C@H]1C(=O)O [Amoxicillin]
degradation at 24 hours (0.00015 mg/ml, 24 hours): no degradation | degradation to (potency remaining) at 24 hours (0.42 mg/ml, buffered solution, pH 8.04, 24 hours): 73%
